Values after ≈ are worked out from the molar mass of the structure shown.
These molecules were tested on HCT-116 (assay: Cytotoxicity against human HCT116 cells after 72 hrs by MTS assay). Details: HCT-116, 72 h.
Assay type: functional, cell-based

SMILES | IC50 [mg/L]
CCC(/C=C/[C@@H](C)[C@H]1CC[C@H]2[C@@H]3CC=C4C(=O)[C@](O)(C(=O)OC)C[C@]4(C)[C@H]3CC[C@]12C)C(C)C (mixture of isomers) [PHORBASTERONE C] | 1
CCC(CC[C@@H](C)[C@H]1CC[C@H]2[C@@H]3CC=C4C(=O)[C@](O)(C(=O)OC)C[C@]4(C)[C@H]3CC[C@]12C)C(C)C (mixture of isomers) [PHORBASTERONE D] | 1
COC(=O)[C@]1(O)C[C@@]2(C)C(=CC[C@H]3[C@@H]4CC[C@H]([C@H](C)/C=C/C(C)C(C)C)[C@@]4(C)CC[C@@H]32)C1=O (some centres undefined) [PHORBASTERONE A] | 1 (≈ 2.19 µM)
COC(=O)[C@]1(O)C[C@@]2(C)C(=CC[C@H]3[C@@H]4CC[C@H]([C@H](C)CCCC(C)C)[C@@]4(C)CC[C@@H]32)C1=O [PHORBASTERONE B] | 1 (≈ 2.25 µM)

Reference: ChEMBL document CHEMBL1151192, “Phorbasterones A-D, cytotoxic nor-ring A steroids from the sponge Phorbas amaranthus” (J Nat Prod, 2004)
